Data taken from US12195461B2, “Pyrrolo-dipyridine compounds” (OssiFi Therapeutics LLC, priority 2018, dated 2025).

Key:
sclerostin = biological target: T1, sclerostin (Homo sapiens, UniProt Q9BQB4); assay: Modulation of sclerostin/Wnt activity: restoring Wnt3a signaling in the presence of sclerostin; type: cell-based; design: key to Sclerostin Inhibition Assay; improvement over sclerostin alone: − indicates no improvement over sclerostin protein alone; + indicates an IC100 >10 μM; ++ indicates an IC100 <10 μM; settings: for Sclerostin Inhibition Assay; improvement over sclerostin alone: IC100 class, Wnt3a signaling in human embryonic cells in the presence of sclerostin
T1 construct: host or cells: human embryonic cells (assay cells)
T1 sequence (Q9BQB4 24-213): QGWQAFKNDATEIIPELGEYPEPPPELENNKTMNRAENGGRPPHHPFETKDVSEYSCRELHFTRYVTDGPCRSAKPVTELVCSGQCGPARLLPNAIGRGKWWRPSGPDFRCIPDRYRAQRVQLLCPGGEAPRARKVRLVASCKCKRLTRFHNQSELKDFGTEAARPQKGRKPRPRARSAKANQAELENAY
Procedure: Compounds synthesized in accordance with the methods of Examples 1-6 were assayed for their ability to restore Wnt signaling in the presence of sclerostin consistent with a known sclerostin antagonist, sclerostin Mab. See, Ellies et al., J Bone Miner Res 21:1738-1749 (2006). […] The addition of a known sclerostin antagonist inhibited sclerostin inhibition of Wnt3a signaling, thus restoring Wnt3a signaling in the cell (IC100 at 10 μM) (data not shown).

[1] = tested on: MC3T3-E1 (mouse calvarial) osteoblast cells; assay: Bone formation assay: rescue of sclerostin inhibition of mineralization (total calcium); type: cell-based; design: key to Sclerostin Inhibition of Mineralization; improvement over sclerostin alone: − indicates no improvement over sclerostin protein alone; + indicates an IC100 >10 μM; ++ indicates an IC100 <10 μM; settings: for Sclerostin Inhibition of Mineralization; improvement over sclerostin alone: IC100 class, calcium concentration
Procedure: Mineralization (crystalline calcium phosphate formation) represents an in vitro model of bone formation. Using an assay in which the amount of mineralization is quantified by measuring total calcium after solubilization of deposited crystalline calcium phosphate, sclerostin was previously shown to inhibit mineralization in MC3T3-E1 (mouse calvarial) osteoblast cells. Li et al., J Bone Miner Res 24:578-588 (2008). Following the protocol described in Li et al., Compounds were assayed for their ability to rescue the inhibition of mineralization by sclerostin in MC3T3 osteoblast cells. […] Addition of a compound of Examples 1-6 neutralized sclerostin-mediated inhibition of mineralization, as reflected by the increase in calcium concentration.

[2] = Metabolic stability in pooled human liver microsomes; type: in vitro ADME; settings: 0.1 μM compound, human liver microsomes 0.1 mg/mL, NADPH, 37° C., 60 minutes
Procedure: Compounds of the present invention (0.1 μM) were incubated with microsomes at 37° C. for a total of 60 minutes. The reaction contained pooled human liver microsomal protein (0.1 mg/mL) in potassium phosphate buffer with NADPH. At the indicated time points (0, 5, 15, 30 and 60 minutes). Samples were analyzed by LC/MS/MS and remaining parent drug was calculated using Microsoft Excel (2007). Obach R S, Drug Metab Dispos. 27(11):1350-1359 (1999).

Row | Compound | Sclerostin Inhibition Assay; improvement over sclerostin alone (sclerostin) | Metabolic Stability [2] | effect on Wnt3a signaling (in words) (sclerostin; human embryonic cells) | Sclerostin Inhibition of Mineralization; improvement over sclerostin alone [1] | effect on mineralization, as measured by calcium concentration (in words) [1]
1 | COc1ccc2c3ccnc(C(F)(F)F)c3n(CCN3CCOCC3)c2n1.Cl [Example 3, 4-(2-(2-Methoxy-8-(trifluoromethyl)-9H-pyrrolo[2,3-b:5,4-c′]dipyridin-9-yl)ethyl)morpholine hydrochloride salt] | ++ (++ indicates an IC100 <10 μM) | ++ (++ indicates a stability >1x) |  | ++ (++ indicates an IC100 <10 μM) | 
2 | Cl.FC(F)(F)c1nccc2c3ccncc3n(CCN3CCOCC3)c12 [Example 1, 4-(2-(1-(Trifluoromethyl)-9H-pyrrolo[2,3-c:5,4-c′]dipyridin-9-yl)ethyl)morpholine hydrochloride salt] | + (+ indicates an IC100 >10 μM) | ++ (++ indicates a stability >1x) |  | + (+ indicates an IC100 >10 μM) | 
3 | COc1cc2c(cn1)c1ccnc(C(F)(F)F)c1n2CCN1CCOCC1.Cl [Example 4, 4-(2-(3-Methoxy-6-(trifluoromethyl)-5H-pyrrolo[2,3-c:4,5-c′]dipyridin-5-yl)ethyl)morpholine hydrochloride salt] | ++ (++ indicates an IC100 <10 μM) | ++ (++ indicates a stability >1x) |  | ++ (++ indicates an IC100 <10 μM) | 
4 | Cl.[O-][n+]1ccc2c3ccnc(C(F)(F)F)c3n(CCN3CCOCC3)c2c1 [Example 2, 9-(2-Morpholinoethyl)-8-(trifluoromethyl)-9H-pyrrolo[2,3-c:5,4-c′]dipyridine 2-oxide hydrochloride salt] | − | ++ (++ indicates a stability >1x) |  | − | 

Continued, in another order:

Row | Sclerostin Inhibition Assay; improvement over sclerostin alone (sclerostin) | Metabolic Stability [2] | effect on Wnt3a signaling (in words) (sclerostin; human embryonic cells) | Compound | Sclerostin Inhibition of Mineralization; improvement over sclerostin alone [1] | effect on mineralization, as measured by calcium concentration (in words) [1]
5 | ++ (++ indicates an IC100 <10 μM) | ++ (++ indicates a stability >1x) |  | COc1ncc2c3ccnc(C(F)(F)F)c3n(CCN3CCOCC3)c2n1 [Example 5, 4-(2-(2-Methoxy-8-(trifluoromethyl)-9H-pyrido[4′,3′:4,5]pyrrolo[2,3-d]pyrimidin-9-yl)ethyl)morpholine] | ++ (++ indicates an IC100 <10 μM) | 
6 | − |  | antagonized Wnt3a signaling | Sclerostin protein: sclerostin protein, antagonizes Wnt3a signaling and inhibits mineralization; the assays' inhibitory stimulus and baseline | − | significant decrease in mineralization
7 | ++ (++ indicates an IC100 <10 μM) | ++ (++ indicates a stability >1x) |  | COc1nc2c(cc1F)c1ccnc(C(F)(F)F)c1n2CCN1CCOCC1.Cl [Example 6, 4-(2-(3-Fluoro-2-methoxy-8-(trifluoromethyl)-9H-pyrrolo[2,3-b:5,4-c′]dipyridin-9-yl)ethyl)morpholine hydrochloride salt] | ++ (++ indicates an IC100 <10 μM) | 
